The target of this assay is PFO (perfringolysin O), His-tagged PFO (Clostridium perfringens, UniProt P0C2E9). Format: biochemical.
Sequence of PFO (perfringolysin O), His-tagged PFO (P0C2E9 29-500 limits assumed): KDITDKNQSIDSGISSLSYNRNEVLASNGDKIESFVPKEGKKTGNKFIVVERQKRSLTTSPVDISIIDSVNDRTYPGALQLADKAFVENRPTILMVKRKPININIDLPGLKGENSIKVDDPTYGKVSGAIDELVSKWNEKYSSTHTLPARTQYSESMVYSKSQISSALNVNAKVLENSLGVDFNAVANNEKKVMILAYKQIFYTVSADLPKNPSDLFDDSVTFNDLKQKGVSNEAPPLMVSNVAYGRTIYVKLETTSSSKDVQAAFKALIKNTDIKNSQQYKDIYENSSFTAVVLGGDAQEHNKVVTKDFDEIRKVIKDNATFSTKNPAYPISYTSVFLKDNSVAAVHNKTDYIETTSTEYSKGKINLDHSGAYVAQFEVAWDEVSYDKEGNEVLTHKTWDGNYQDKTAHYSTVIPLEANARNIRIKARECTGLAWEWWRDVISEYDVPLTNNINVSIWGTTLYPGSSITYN

Consider `CC(C)CCC[C@@H](C)[C@H]1CC[C@H]2[C@@H]3CC=C4C[C@@H](O)CC[C@]4(C)[C@H]3CC[C@]12C` [cholesterol], for which the “% activity retained at 0.5 μM cholesterol” value worked out at 7.6%.

(Values after PMC3215231, “Arcanolysin is a cholesterol-dependent cytolysin of the human pathogen Arcanobacterium haemolyticum” (BMC Microbiology, 2011).)
